Laboratory results published in patent US9023814B2, “Glycomimetic compounds as anti-infectious against pathogens lectins” (priority 2010, dated 2015).
Like-named read-outs stand apart in the source and are kept apart here.

What was measured:
LecA [1] = molecular target: T1, LecA (Pseudomonas aeruginosa, UniProt Q05097); test: Inhibition of Hemagglutination (HIA), LecA-induced agglutination of rabbit erythrocytes; assay type: cell-based; details: LecA 6 μg/mL, 25° C.
Method: Inhibition of Hemagglutination (IHA) (or Hemagglutination Inhibition Assays (HIA)).
The LecA lectin agglutinates red blood cells since they are covered by glycoconjugates. The glycomimetics inhibit this agglutination.
For each compound the minimum concentration able to perform inhibition has been evaluated. The method is not very quantitative but mimics natural system.
(§1) More particularly, hemagglutination inhibition assays were performed in U-shaped 96-well microtitre plates. Rabbit erythrocytes were bought from Biomerieux and used without further washing. The erythrocytes were diluted to a 4% solution in NaCl (150 mM). Lectin solutions of 2 mg/mL were prepared in Tris/HCl 20 mM, NaCl 100 mM and CaCl2 100 μM. The hemagglutination unit (HU) was first obtained by the addition of 25 μL of the 4% erythrocyte solution to 25 μL aliquots of sequential (two-fold) lectin dilutions. The mixture was incubated at 25° C. for 60 minutes. The HU was measured as the minimum lectin concentration required to […] hemagglutination. For the following lectin-inhibition assays, lectin concentrations of four times that of the hemagglutination unit were used, i.e. a concentration of 6 μg/mL for LecA. Subsequent assays were then carried out by the addition of 12.5 μL lectin solution (at the required concentration) to 25 μL of sequential dilutions of glycoclusters, monomer molecules and controls. These solutions were then incubated at 25° C. for 2 h then 12.5 μL of 4% erythrocyte solution was added followed by an additional incubation at 25° C. for 30 minutes. The minimum inhibitory concentration for each molecule was determined by simple eye detection.
Compounds 5, 10, 14, 19, 21, 23, 25, 27, 29 and 31 were evaluated towards LecA according to Method 1.

LecA [2] = molecular target: T1, LecA; test: Enzyme-Linked Lectin Assay (ELLA), biotinylated LecA binding to polymeric galactose
Method: Enzyme-Linked Lectin Assay (ELLA) Experiments 96-well plates are covered with polymer presenting galactose (which is the monosaccharide that is bound by LecA). The lectin labelled with biotin is added in presence of competing glycomimetics. IC50 can be measured.
More particularly, ELLA experiments were conducted using 96-well microtitre plates (Nunc Maxisorb) coated with polymeric β-D-galactose (5 μg/mL; Lectinity Holding, Inc., Moscow) diluted in carbonate buffer, pH 9.6 (100 μL) for 1 h at 37° C. After blocking at 37° C. for 1 h with 100 μL per well of 3% (w/v) BSA in PBS, plates were incubated at 37° C. for 1 h with 100 μL of biotinylated LecA at 0.1 μg/mL in the presence of serial dilutions of inhibitors. After washing with T-PBS (PBS containing 0.05% Tween), 100 μL of streptavidinperoxidase conjugate (dilution 1:10000; Boehringer-Mannheim) was added and left for 1 h at 37° C. The color was developed using 100 μL per well of 0.05 M phosphate/citrate buffer containing O-phenylenediamine dihydrochloride (0.4 mg/mL) and urea hydrogen peroxide (0.4 mg/mL) (Sigma-Aldrich). The reaction was stopped by the addition of 50 μL of 30% H2SO4. Absorbance was read at 490 nm using a microtitre plate reader (Bio-Rad; model 680).

LecA [3] = molecular target: T1, LecA; test: biochemical; assay type: binding
Method: Surface Plasmon Resonance (SPR).
Equivalent method, but performed in miniaturized channel on a galactose-containing chips in a more sophisticated apparatus (Biacore 3000) that allows for a precise determination of the IC50.
More particularly, SPR inhibition experiments were performed on a Biacore 3000 instrument at 25° C. Measurements were carried out on 2 channels with 2 immobilised sugars: α-L-fucose (channel 1), α-D-galactose (channel 2). Immobilization of sugars was performed at 25° C. using running buffer (HBS) at 5 μL/min. Immobilization on each channel (CM5 Chip) was performed independently as follows. First, channel was activated by injecting a fresh mixture of EDC/NHS (35 μL, 420 s). Then, a solution of strepatavidin (100 μg/mL in Na acetate pH 5 buffer) was injected (50 μL, 600 s). Remaining reactive species were quenched by injecting ethanolamine (1M, 35 μL, 420 s). Finally a solution of the desired biotinylated-polyacrylamide-sugar (Lectinity, 200 μg/mL) was coated onto the surface (50 μL, 600 s) through streptavidin-biotin interaction. This procedure led to 804 RU (fucoside) and 796 RU (galactoside) of immobilized sugars on channel 1 and 2 respectively. Inhibition experiments were performed with the galactosylated channel 2 and plots represent subtracted data (channel 2-channel 1).
LecA was injected using running buffer consisting of HEPES 10 mM, NaCl 150 mM, CaCl2 10 mM, Tween P20 0.005%, pH 7.4. Inhibition studies consisted in the injection (150 μL, 10 μL/min, dissociation: 120 s) of incubated (>1 h, r.t.) mixtures of LecA (5 μM) and various concentrations of inhibitor (2-fold cascade dilutions). For each inhibition assay, LecA (5 μM) without inhibitor was injected to observe the full adhesion of the lectin onto the sugar-coated surface (0% inhibition). The CM5 chip was fully regenerated by successive injections of D-Galactose (2×30 μL, 100 mM in running buffer).
Binding was measured as RU over time after blank subtraction, and data were then evaluated using the BIAevaluation Software, version 4.1. For IC50 evaluation, the response (Req-fitted) was considered as the amount of lectin bound to the sugar surface at equilibrium in the presence of a defined concentration of inhibitor. Inhibition curves were obtained by plotting the percentage of inhibition against the inhibitor concentration (on a logarithmic scale) by using Origin 7.0 software (OriginLab Corp.) and IC50 values were extracted from sigmoidal fit of the inhibition curve.

LecA [4] = molecular target: T1, LecA; test: biochemical; assay type: binding; remark: listed apart in the source
Method: Isothermal Titration Microcalorimetry (ITC).
The method allows for a direct measurement of the affinity between the glycomimetics and the LecA lectin. The dissociation constant is measured.
More particularly, recombinant lyophilized LecA was dissolved in buffer (0.1 M TrisHCl, 6 μM CaCl2, pH 7.5) and degassed (see Supp. Info. for concentration details). Protein concentration was checked by measurement of optical density using a theoretical molar extinction coefficient of 28000. Carbohydrate ligands were dissolved directly into the same buffer, degassed, and placed in the injection syringe. ITC was performed with a VP-ITC MicroCalorimeter from MicroCal Incorporated. PA-IL was placed into the 1.4478-mL sample cell, at 25° C. Titration was performed with 10-μL injections of carbohydrate ligands every 300 s. Data were fitted with MicroCal Origin 7 software, according to standard procedures. Fitted data yielded the stoichiometry (n), the association constant (Ka) and the enthalpy of binding (ΔH).
Other thermodynamic parameters (i.e. changes in free energy, ΔG, and entropy, ΔS) were calculated from the equation: ΔG=ΔH TΔS=−RT Inka where T is the absolute temperature and R=8.314 J·mol^−1·K^−1. Two or three independent titrations were performed for each ligand tested.

Rabbit erythrocytes = test: Hemolysis of red cells observed in the hemagglutination inhibition assay; assay type: cell-based; details: at the concentration used in the hemagglutination inhibition assay
Method: as §1
The values given in table 1 are inhibiting concentrations of lectin-induced rec cells agglutination. Monocovalent glycoconjugate compound 14 and tetravalent glyconjugate compounds 21 and 23 are the most efficient.

[5] = read-out: IC50 for the inhibition of labelled-LecA binding to a galactosylated polymer (ELLA), biotinylated LecA 0.1 μg/mL, multi-well plate
[6] = read-out: IC50 for the inhibition of label-free LecA binding to a galactosylated chip surface (SPR), LecA 5 μM, 25° C.
[7] = read-out: Dissociation constant for the interaction in solution with LecA (ITC), 25° C., 0.1 M TrisHCl, pH 7.5

T1 sequence (Q05097 whole entry): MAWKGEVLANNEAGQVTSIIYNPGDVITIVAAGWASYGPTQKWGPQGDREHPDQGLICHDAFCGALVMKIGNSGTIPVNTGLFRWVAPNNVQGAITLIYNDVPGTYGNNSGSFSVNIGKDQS

Structure (SMILES)	inhibiting concentrations of lectin-induced red cells agglutination (minimum inhibitory concentration) (LecA [1])	IC50 (LecA [2]; [5]) [µM]	IC50 (SPR), in words (LecA [3])	IC50 (LecA [3]; [6]) [µM]	Hemolysis of red cells (Rabbit erythrocytes)	other results
CC(C)(C)c1cc2c(OCc3cn(CC(=O)NCC(=O)NCCOC4OC(CO)C(O)C(O)C4O)nn3)c(c1)Cc1cc(C(C)(C)C)cc(c1OCc1cn(CC(=O)NCC(=O)NCCOC3OC(CO)C(O)C(O)C3O)nn1)Cc1cc(C(C)(C)C)cc(c1OCc1cn(CC(=O)NCC(=O)NCCOC3OC(CO)C(O)C(O)C3O)nn1)Cc1cc(C(C)(C)C)cc(c1OCc1cn(CC(=O)NCC(=O)NCCOC3OC(CO)C(O)C(O)C3O)nn1)C2 (stereo not drawn) [Comp. 21]	250 µM	21	–	–	–	–
CC(C)(C)c1cc2c(OCc3cn(CC(=O)NCC(=O)NCCOC4OC(CO)C(O)C(O)C4O)nn3)c(c1)Cc1cc(C(C)(C)C)cc(c1OCc1cn(CC(=O)NCC(=O)NCCOC3OC(CO)C(O)C(O)C3O)nn1)Cc1cc(C(C)(C)C)cc(c1OCc1cn(CC(=O)NCC(=O)NCCOC3OC(CO)C(O)C(O)C3O)nn1)Cc1cc(C(C)(C)C)cc(c1OCc1cn(CC(=O)NCC(=O)NCCOC3OC(CO)C(O)C(O)C3O)nn1)C2 (stereo not drawn) [Comp. 23]	250 µM	7	micromolar range	1.1	–	Kd (LecA [4]; [7]): 239 µM
CC(C)(C)c1cc2c(OCc3cn(CC(=O)NCC(=O)NCCOC4OC(CO)C(O)C(O)C4O)nn3)c(c1)Cc1cc(C(C)(C)C)cc(c1OCc1cn(CC(=O)NCC(=O)NCCOC3OC(CO)C(O)C(O)C3O)nn1)Cc1cc(C(C)(C)C)cc(c1OCc1cn(CC(=O)NCC(=O)NCCOC3OC(CO)C(O)C(O)C3O)nn1)Cc1cc(C(C)(C)C)cc(c1OCc1cn(CC(=O)NCC(=O)NCCOC3OC(CO)C(O)C(O)C3O)nn1)C2 (stereo not drawn) [Comp. 25]	625 µM	14	micromolar range	1.2	–	–
O=C(Cn1cc(CO)nn1)NCCOCCO[C@@H]1O[C@H](CO)[C@H](O)[C@H](O)[C@H]1O [Comp. 5, 1-[(1,2,3-Triazol-4-hydroxymethyl-1-yl)-acetamido]-3-oxapent-5-yl β-D-galactopyranoside]	10 000 μM	–	–	–	–	IC50 (LecA [2]): 250 µM; IC50 (LecA [3]): 58.3 µM; Kd (LecA [4]): 107 µM
CC(C)(C)c1cc2c(OCc3cn(CC(=O)NCCOCCOC4OC(CO)C(O)C(O)C4O)nn3)c(c1)Cc1cc(C(C)(C)C)cc(c1OCc1cn(CC(=O)NCCOCCOC3OC(CO)C(O)C(O)C3O)nn1)Cc1cc(C(C)(C)C)cc(c1OCc1cn(CC(=O)NCCOCCOC3OC(CO)C(O)C(O)C3O)nn1)Cc1cc(C(C)(C)C)cc(c1OCc1cn(CC(=O)NCCOCCOC3OC(CO)C(O)C(O)C3O)nn1)C2 (stereo not drawn) [Comp. 19]	500 µM	7	micromolar range	1	–	Kd (LecA [4]; [7]): 0.094 µM; Kd (LecA [4]; read-out: dissociation constant (ITC), 25° C.): 0.094 µM
CC(C)(C)c1cc2c(OCc3cn(CC(=O)Nc4ccc(OC5OC(CO)C(O)C(O)C5O)cc4)nn3)c(c1)Cc1cc(C(C)(C)C)cc(c1OCc1cn(CC(=O)Nc3ccc(OC4OC(CO)C(O)C(O)C4O)cc3)nn1)Cc1cc(C(C)(C)C)cc(c1OCc1cn(CC(=O)Nc3ccc(OC4OC(CO)C(O)C(O)C4O)cc3)nn1)Cc1cc(C(C)(C)C)cc(c1OCc1cn(CC(=O)Nc3ccc(OC4OC(CO)C(O)C(O)C4O)cc3)nn1)C2 (stereo not drawn) [Comp. 27]	–	0.8	–	–	Hemolysis of red cells is observed	IC50 (ELLA), in words (LecA [2]): sub micromolar range
CC(C)(C)c1cc2c(OCc3cn(CC(=O)Nc4ccc(OC5OC(CO)C(O)C(O)C5O)cc4)nn3)c(c1)Cc1cc(C(C)(C)C)cc(c1OCc1cn(CC(=O)Nc3ccc(OC4OC(CO)C(O)C(O)C4O)cc3)nn1)Cc1cc(C(C)(C)C)cc(c1OCc1cn(CC(=O)Nc3ccc(OC4OC(CO)C(O)C(O)C4O)cc3)nn1)Cc1cc(C(C)(C)C)cc(c1OCc1cn(CC(=O)Nc3ccc(OC4OC(CO)C(O)C(O)C4O)cc3)nn1)C2 (stereo not drawn) [Comp. 29]	–	0.9	–	–	Hemolysis of red cells is observed	IC50 (ELLA), in words (LecA [2]): sub micromolar range
O=C(CNC(=O)Cn1cc(CO)nn1)NCCO[C@@H]1O[C@H](CO)[C@H](O)[C@H](O)[C@H]1O [Comp. 10, 2-N-[(1,2,3-Triazol-4-hydroxymethyl-1-yl)-acetamido]glycinamido-ethyl β-D-galactopyranoside]	2 500 μM	–	–	–	–	IC50 (LecA [2]): 300 µM; IC50 (LecA [3]): 60 µM; Kd (LecA [4]): 180 µM
CC(C)(C)c1cc2c(OCc3cn(CC(=O)Nc4ccc(OC5OC(CO)C(O)C(O)C5O)cc4)nn3)c(c1)Cc1cc(C(C)(C)C)cc(c1OCc1cn(CC(=O)Nc3ccc(OC4OC(CO)C(O)C(O)C4O)cc3)nn1)Cc1cc(C(C)(C)C)cc(c1OCc1cn(CC(=O)Nc3ccc(OC4OC(CO)C(O)C(O)C4O)cc3)nn1)Cc1cc(C(C)(C)C)cc(c1OCc1cn(CC(=O)Nc3ccc(OC4OC(CO)C(O)C(O)C4O)cc3)nn1)C2 (stereo not drawn) [Comp. 31]	–	5	–	–	Hemolysis of red cells is observed	–
